{"source": "paper PMC12044458", "about": "(ACS Omega, 2025)", "key": {"[1]": {"system": "Poly(I:C) Na^+ (RNA, polymer, hypoxanthine (inosine) in place of every G of strand 1 (polyinosinic acid)) G/C", "assay": "fluorescence titration of compound emission", "conditions": "PBS, <1% DMSO, 5 µM compound, per base pair"}, "[2]": {"system": "Poly(I:C) Na^+ γ (RNA, polymer, hypoxanthine (inosine) in place of every G of strand 1 (polyinosinic acid); gamma-irradiated, possible strand breaks) G/C", "assay": "fluorescence titration of compound emission", "conditions": "PBS, 0 mM Mg2+, <1% DMSO, 5 µM compound, per base pair"}, "[3]": {"system": "Poly(I:C) HMW (RNA, polymer, hypoxanthine (inosine) in place of every G of strand 1 (polyinosinic acid)) G/C", "assay": "fluorescence titration of compound emission", "conditions": "PBS, 0 mM Mg2+, <1% DMSO, 5 µM compound, per base pair"}, "[4]": {"system": "Poly(I:C) HMW fluorescein (RNA, polymer, hypoxanthine (inosine) in place of every G of strand 1 (polyinosinic acid)) G/C", "assay": "microscale thermophoresis", "conditions": "PBS-T, PBS-T pH 7.4, 200 nM labelled Poly(I:C)"}, "human RNase [5]": {"molecular_target": "T1, human RNase", "T1 construct": "his-tag-labeled human RNase", "assay": "microscale thermophoresis (MST), two-site fit; Kd2 =[…]", "format": "binding"}, "[6]": {"system": "Poly(I:C) HMW (RNA, polymer, hypoxanthine (inosine) in place of every G of strand 1 (polyinosinic acid)) G/C", "assay": "circular dichroism", "conditions": "PBS, 0 mM Mg2+, 100 µM compound and 100 µM Poly(I:C)"}, "[7]": {"system": "Poly(I:C) Na^+ (RNA, polymer, hypoxanthine (inosine) in place of every G of strand 1 (polyinosinic acid)) G/C", "assay": "UV melting", "conditions": "PBS, 0 mM Mg2+, compound concentration not in material, per base"}, "[8]": {"system": "Poly(I:C) HMW (RNA, polymer, hypoxanthine (inosine) in place of every G of strand 1 (polyinosinic acid)) G/C", "assay": "UV melting", "conditions": "PBS, 0 mM Mg2+, compound concentration not in material, per base"}, "human RNase [9]": {"molecular_target": "T1, human RNase", "assay": "microscale thermophoresis (MST), two-site fit; Kd2 =[…]", "format": "binding", "remark": "listed apart in the source"}, "human RNase [10]": {"molecular_target": "T1, human RNase", "assay": "microscale thermophoresis (MST)", "format": "binding"}, "[11]": {"conditions": "derived from two Tm (65 and 65)"}, "[12]": {"conditions": "derived from two Tm (66 and 67)"}, "[13]": {"conditions": "540 nm, 1:1 model, conditional constant, per base"}, "[14]": {"conditions": "540 nm, 1:2 model, not a 1:1 Ka"}, "[15]": {"conditions": "595 nm, 1:1 model, conditional constant, per base"}, "[16]": {"conditions": "595 nm, 1:2 model, not a 1:1 Ka"}}}
{"smiles": "CN(C)[C@@H]1C(=O)C(C(N)=O)=C(O)[C@@]2(O)C(=O)C3=C(O)c4c(O)cccc4[C@@](C)(O)[C@H]3C[C@@H]12", "values": [{"measurement": "Log(K)", "setting": "[1]; 0 mM Mg2+, 549 nm, 1:1 model, conditional constant, per base", "result": "4.64 ± 0.96"}, {"measurement": "Log(K)", "setting": "[1]; 0 mM Mg2+, 549 nm, 1:2 model, not a 1:1 Ka", "result": "11.18 ± 0.99"}, {"measurement": "Log(K)", "setting": "[2]; 505 nm, 1:1 model, conditional constant, per base", "result": "4.37 ± 0.56"}, {"measurement": "Log(K)", "setting": "[2]; 505 nm, 1:2 model, not a 1:1 Ka", "result": "9.57 ± 0.71"}, {"measurement": "Log(K)", "setting": "[3]; 549 nm, 1:1 model, conditional constant, per base", "result": "5.02 ± 1.05"}, {"measurement": "Log(K)", "setting": "[3]; 549 nm, 1:2 model, not a 1:1 Ka", "result": "11.70 ± 1.37"}, {"measurement": "Kd", "setting": "[4]; ligand stock 1 mM", "result": "448.1 ± 86.4", "unit": "µM"}]}
{"smiles": "C[C@H]1c2cccc(O)c2C(=O)C2=C(O)[C@]3(O)C(=O)C(C(N)=O)=C(O)[C@@H](N(C)C)[C@@H]3[C@@H](O)[C@@H]21", "note": "[doxycycline]", "values": [{"measurement": "Kd", "setting": "human RNase [5]", "result": "0.149 ± 0.052", "unit": "µM"}]}
{"smiles": "CN(C)c1ccc(O)c2c1C[C@H]1C[C@H]3[C@H](N(C)C)C(O)=C(C(N)=O)C(=O)[C@@]3(O)C(O)=C1C2=O", "note": "[minocycline]", "values": [{"measurement": "binding", "setting": "[6]", "result": "yes"}, {"measurement": "melting temperature shift (ΔTm)", "setting": "[7]; [11]", "result": 0, "unit": "°C"}, {"measurement": "melting temperature shift (ΔTm)", "setting": "[8]; [12]", "result": -1, "unit": "°C"}, {"measurement": "Kd", "setting": "human RNase [9]", "result": "0.509 ± 0.118", "unit": "µM"}]}
{"smiles": "C[C@H]1c2cccc(O)c2C(O)=C2C(=O)[C@]3(O)C(O)=C(C(N)=O)C(=O)[C@@H](N(C)C)[C@@H]3[C@@H](O)[C@@H]21", "values": [{"measurement": "Log(K)", "setting": "[1]; 0 mM Mg2+, 540 nm, 1:2 model, not a 1:1 Ka", "result": "9.85 ± 0.99"}, {"measurement": "Log(K)", "setting": "[1]; 10 mM Mg2+ (MgSO4), 537 nm, 1:1 model, conditional constant, per base", "result": "5.39 ± 0.96"}, {"measurement": "Log(K)", "setting": "[2]; [13]", "result": "4.14 ± 0.57"}, {"measurement": "Log(K)", "setting": "[2]; [14]", "result": "10.39 ± 1.8"}, {"measurement": "melting temperature shift (ΔTm)", "setting": "[7]; derived from two Tm (64 and 65)", "result": -1, "unit": "°C"}, {"measurement": "Log(K)", "setting": "[3]; [13]", "result": "4.62 ± 0.3"}, {"measurement": "Log(K)", "setting": "[3]; [14]", "result": "11.34 ± 1.81"}, {"measurement": "melting temperature shift (ΔTm)", "setting": "[8]; derived from two Tm (67 and 67)", "result": 0, "unit": "°C"}, {"measurement": "Kd", "setting": "[4]; ligand stock 1 mM", "result": "366.2 ± 74.9", "unit": "µM"}]}
{"smiles": "CN(C)[C@@H]1C(O)=C(C(N)=O)C(=O)[C@@]2(O)C(O)=C3C(=O)c4c(O)cccc4[C@@](C)(O)[C@H]3C[C@@H]12", "note": "[tetracycline]", "values": [{"measurement": "Kd", "setting": "human RNase [10]", "result": 24.5, "unit": "µM"}]}
{"smiles": "COc1cccc2c1C(=O)c1c(O)c3c(c(O)c1C2=O)C[C@@](O)(C(=O)CO)C[C@@H]3O[C@H]1C[C@H](N)[C@H](O)[C@H](C)O1", "note": "[doxorubicin]", "values": [{"measurement": "Log(K)", "setting": "[1]; 0 mM Mg2+, 595 nm, 1:1 model, conditional constant, per base", "result": "5.03 ± 0.75"}, {"measurement": "Log(K)", "setting": "[1]; 0 mM Mg2+, 595 nm, 1:2 model, not a 1:1 Ka", "result": "10.69 ± 1.14"}, {"measurement": "Log(K)", "setting": "[2]; [15]", "result": "4.50 ± 0.72"}, {"measurement": "Log(K)", "setting": "[2]; [16]", "result": "10.13 ± 1.23"}, {"measurement": "Kd", "setting": "human RNase [10]", "result": "4.8 ± 2", "unit": "µM"}, {"measurement": "melting temperature shift (ΔTm)", "setting": "[7]; [11]", "result": 0, "unit": "°C"}, {"measurement": "Log(K)", "setting": "[3]; [15]", "result": "5.21 ± 0.75"}, {"measurement": "Log(K)", "setting": "[3]; [16]", "result": "11.23 ± 1.10"}, {"measurement": "melting temperature shift (ΔTm)", "setting": "[8]; [12]", "result": -1, "unit": "°C"}, {"measurement": "Kd", "setting": "[4]; ligand stock 0.25 mM, Kd above tested range", "result": "251 ± 22", "unit": "µM"}]}
